Test results taken from patent US20100041665A1, “N-PHENYL-PRENYLAMINE DERIVATIVES FOR THE TREATMENT OF COGNITIVE, NEURODEGENERATIVE OR NEURONAL DISEASES OR DISORDERS” (NOSCIRA, S.A., priority 2006, published 2010).

Legend:
[1] = target: Recombinant human glycogen synthase kinase 3 beta (Homo sapiens, UniProt P49841); assay: GSK-3 beta inhibition assay; assay type: biochemical; settings: percentage of enzyme activity; for remaining activity at 25 µM / remaining activity at 50 µM: 0.5 h
Description: GSK-3 beta Inhibition Assay
The GSK-3 beta activity of the compounds of formula (I) according to the present invention was determined by incubation of a mixture of recombinant human GSK-3 enzyme, a phosphate source and GSK-3 substrate in the presence and in the absence of the corresponding test compound, and by measuring the GSK-3 activity of this mixture. The compounds where tested at final concentrations of 25 and 50 μM.
Recombinant human glycogen synthase kinase 3 beta was assayed in MOPS 11 mM, pH 7.4, EDTA 0.2 mM, EGTA 1.25 mM, MgCl2 26.25 mM and sodium orthovanadate 0.25 mM in the presence of 62.5 μM of Phospho-Glycogen Synthase Peptide-2 (GS-2), 0.5 μCi gamma-^33P-ATP and unlabelled ATP at a final concentration of 12.5 μM. The final assay volume was 20 μl. After incubation for 30 minutes at 30° C., 15 μl aliquots were spotted onto P81 phosphocellulose papers. Filters were washed four times for at least 10 minutes each and counted with 1.5 ml of scintillation cocktail in a scintillation counter.
(§1) The compounds of formula (I) of the present invention where submitted to the above indicated assays, in order to determine both their GSK-3 inhibition activity and BACE activity inhibition. The results are indicated in Table I and Table II, in percentage of the respective enzyme activity.

[2] = target: T1, rhBACE-1 β-Secretase recombinant human (Homo sapiens, UniProt P56817); assay: BACE assay (FRET); assay type: biochemical; settings: percentage of enzyme activity
T1 construct: purchased R&D Systems 931-AS
T1 sequence (P56817 46-457 limits assumed): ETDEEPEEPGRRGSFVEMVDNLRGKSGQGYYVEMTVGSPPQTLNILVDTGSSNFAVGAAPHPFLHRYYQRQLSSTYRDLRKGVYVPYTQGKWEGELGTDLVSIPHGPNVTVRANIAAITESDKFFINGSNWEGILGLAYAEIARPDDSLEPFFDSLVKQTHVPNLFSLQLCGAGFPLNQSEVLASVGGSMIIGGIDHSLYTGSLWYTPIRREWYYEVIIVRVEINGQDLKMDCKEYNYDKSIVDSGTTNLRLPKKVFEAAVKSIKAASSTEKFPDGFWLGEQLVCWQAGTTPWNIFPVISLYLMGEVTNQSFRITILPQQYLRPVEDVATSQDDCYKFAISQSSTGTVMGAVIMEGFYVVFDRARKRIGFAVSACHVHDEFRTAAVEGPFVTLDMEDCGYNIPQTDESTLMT
From the text: The aim of this assay is to determine if a compound, either synthetic or of marine origin, is a BACE-1 inhibitor, to avoid the formation of Aβ. This assay is based on FRET technology (Fluorescence Resonance Energy Transfer). FRET is used to measure cleavage of a peptide substrate, among other uses. […] When a substrate peptide cleavage occurs, the energy balance is broken and all the donor fluorescence can be observed. The increase in fluorescence is linearly related to the rate of proteolysis (Gordon, G W et al., 1998). In this assay the reaction occurs between an enzyme, purified BACE-1, and a fluorogenic peptidic substrate who present the “Swedish mutation”. The peptide cleavage by BACE-1 produces fluorescence energy and enzymatic activity can be quantified.
The reagents which are used in this assay are the following: • rhBACE-1 β-Secretase recombinant human (R&D Systems. Ref. 931-AS). • Fluorogenic Peptide Substrate IV (R&D Systems. Ref. ES004). • Beta-SECRETASE INHIBITOR H-4848. (BACHEM. Ref. H-4848.0001). • Sodium acetate.
The assay is carried out in a 96 wells microplate. The final concentration of substrate is 3.5 μM per well, and the enzyme concentration is 0.5 μg/ml. The final volume of the assay is 100 μl per well and all reagents are diluted in Reaction Buffer. The compounds are tested at a concentration of 10^−5 and 10^−6 M. The control in the assay is the commercial inhibitor β-Secretase inhibitor H-4848 from BACHEM, which is tested at 300 nM. All the samples and controls are studied by duplicate.
The plate is mixed gently and changes in the fluorescence are measured using a fluorimeter plate reader, with 320 nm excitation filter and 405 nm emission filter. The temperature should be preferably maintained between 25 and 30° C. Measurements are carried out every ten minutes during an hour. The first measure is subtracted from the last to calculate the fluorescence increase, evaluating the enzymatic activity. The 100% activity is calculated as the mean of the results of wells without sample or inhibitor.
In the cases where abnormal effects in fluorescence were detected, BACE inhibition activity was assayed using BACE-1 (beta-Secretase) FRET ASSAY KIT (Invitrogen, Ref. P2985). Fluorescence was measured with a fluorimeter plate reader, with 544 nm excitation filter and 580 nm emission filter.
as §1

Sequence of Recombinant human glycogen synthase kinase 3 beta (P49841 whole entry): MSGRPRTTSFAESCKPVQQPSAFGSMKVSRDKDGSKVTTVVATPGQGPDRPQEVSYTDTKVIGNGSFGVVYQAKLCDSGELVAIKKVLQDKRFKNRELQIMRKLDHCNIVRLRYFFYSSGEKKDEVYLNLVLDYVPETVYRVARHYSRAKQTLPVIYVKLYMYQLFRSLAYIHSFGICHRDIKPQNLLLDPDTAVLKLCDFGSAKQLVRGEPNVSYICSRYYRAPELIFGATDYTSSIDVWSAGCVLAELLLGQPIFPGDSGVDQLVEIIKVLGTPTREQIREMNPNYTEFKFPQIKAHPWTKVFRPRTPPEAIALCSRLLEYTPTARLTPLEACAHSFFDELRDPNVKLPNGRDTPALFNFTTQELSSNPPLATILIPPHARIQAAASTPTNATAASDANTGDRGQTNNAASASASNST

Row | SMILES | remaining activity at 25 µM ([1]; compound at 25 μM) | remaining activity at 50 µM ([1]; compound at 50 μM) | % of BACE activity ([2]; compound at 1 μM) | % of BACE activity ([2]; compound at 10 μM) | % GSK-3 beta activity ([1]; compound at 25 μM) | % GSK-3 beta activity ([1]; compound at 50 μM)
1 | COc1ccc(C(=O)O)cc1NC/C=C(\C)CC/C=C(\C)CCC=C(C)C [Compound 5] | 70.2% | 52.8% | 50 ± 9% | 0% |  | 
2 | COC(=O)c1cccc(NC/C=C(\C)CC/C=C(\C)CCC=C(C)C)c1 [Compound 7] |  | 54.7% | 0% | 0% |  | 
3 | CC(C)=CCC/C(C)=C/CC/C(C)=C/CNc1cccc(C(=O)O)c1 [Compound 9] | 84.1% | 39.6% | 89.5 ± 9% | 25.5 ± 6% |  | 
4 | COc1ccccc1NCC=C(C)CCC=C(C)CCC=C(C)C [Compound 12, (2-Methoxy-phenyl)-(3,7,11-trimethyl-dodeca-2,6,10-trienyl)-amine] | 74.8% | 56.7% | 94 ± 8% | 64.5 ± 9% |  | 
5 | CC(C)=CCCC(C)=CCNc1cccc(C(=O)O)c1 [Compound 13, 3-(3,7-Dimethyl-octa-2,6-dienylamino)-benzoic acid] | 55.5% | 35.5% | 75 ± 5% | 70 ± 19% |  | 
6 | COCOc1ccc(C(=O)OC)cc1NC/C=C(\C)CC/C=C(\C)CCC=C(C)C [Compound 14] | 61.8% | 25.4% | 60 ± 17% | 4 ± 6% |  | 
7 | COC(=O)c1ccc(OC)c(N(C/C=C(\C)CCC=C(C)C)C/C=C(\C)CCC=C(C)C)c1 [Compound 17] |  |  | 43 ± 15% | 0% | 73.2% | 42.14%
8 | COC(=O)c1ccc(OC)c(N(C/C=C(\C)CC/C=C(\C)CCC=C(C)C)C/C=C(\C)CC/C=C(\C)CCC=C(C)C)c1 [Compound 18] | 56.6% | 5.35% | 100% | 100% |  | 
9 | COc1ccc(C(=O)O)cc1N(CC=C(C)CCC=C(C)CCC=C(C)C)CC=C(C)CCC=C(C)CCC=C(C)C [Compound 19, 3-[Bis-(3,7,11-trimethyl-dodeca-2,6,10-trienyl)-amino]-4-methoxy-benzoic acid] | 30.6% | 15.3% | 60 ± 14% | 46 ± 28% |  | 
10 | COC(=O)c1cccc(N(CC=C(C)CCC=C(C)C)CC=C(C)CCC=C(C)C)c1 [Compound 20, 3-[Bis-(3,7-dimethyl-octa-2,6-dienyl)-amino]-benzoic acid methyl ester] | 67.3% | 36.2% | 76 ± 25% | 3 ± 5% |  | 
11 | CC(C)=CCC/C(C)=C/CC/C(C)=C/CN(C/C=C(\C)CC/C=C(\C)CCC=C(C)C)c1cccc(C(=O)O)c1 [Compound 23] | 37.4% | 21.6% | 41 ± 12% | 0% |  | 
12 | CC(C)=CCC/C(C)=C/CN(C/C=C(\C)CCC=C(C)C)c1cccc(C(=O)O)c1 [Compound 24] | 37.4% | 24.6% | 24 ± 12% | 1.6 ± 2% |  | 
13 | COc1ccccc1N(C/C=C(\C)CCC=C(C)C)C/C=C(\C)CCC=C(C)C [Compound 27] | 90.7% | 59.6% | 88.5 ± 0.7% | 51 ± 16% |  | 
14 | COC(=O)c1ccc(O)c(N(CC=C(C)CCC=C(C)CCC=C(C)C)CC=C(C)CCC=C(C)CCC=C(C)C)c1 [Compound 28, 3-[Bis-(3,7,11-trimethyl-dodeca-2,6,10-trienyl)-amino]-4-hydroxy-benzoic acid methyl ester] | 48.5% | 20.7% | 83 ± 12% | 40.5 ± 19% |  | 
15 | COC(=O)c1ccc(O)c(N(C/C=C(\C)CCC=C(C)C)C/C=C(\C)CCC=C(C)C)c1 [Compound 29] | 71.3% | 40.4% | 2.5 ± 3.5% | 0 ± 0% |  | 
16 | COC(=O)c1ccc(OC)c(N(C/C=C(\C)CCC=C(C)C)C/C=C(\C)CCC=C(C)C)c1 [Compound 30] |  |  | 48 ± 6% | 33 ± 7% | 17.31% | 0.17%
17 | COC(=O)c1ccc(OC(C)=O)c(N(C/C=C(\C)CCC=C(C)C)C/C=C(\C)CCC=C(C)C)c1 [Compound 31] | 108% | 17.4% | 89.5 ± 18% | 4.5 ± 6% |  | 
18 | COC(=O)c1ccc(OC)c(N(CC=C(C)CCC=C(C)CCC=C(C)C)C(=O)OC(C)(C)C)c1 [Compound 33, 3-[tert-Butoxycarbonyl-(3,7,11-trimethyl-dodeca-2,6,10-trienyl)-amino]-4-methoxy-benzoic acid methyl ester] | 27.9% | 19.8% | 92 ± 4% | 61 ± 17% |  | 
19 | COC(=O)c1ccc(OC)c(NCC=C(C)CCC=C(C)CCC=C(C)CCC=C(C)C)c1 [Compound 34, 4-Methoxy-3-(3,7,11,15-tetramethyl-hexadeca-2,6,10,14-tetraenylamino)-benzoic acid methyl ester] | 34.7% | 19.1% | 100% | 100% |  | 
20 | COC(=O)c1ccc(OC)c(N(CC=C(C)CCC=C(C)CCC=C(C)CCC=C(C)C)CC=C(C)CCC=C(C)CCC=C(C)CCC=C(C)C)c1 [Compound 35, 3-[Bis-(3,7,11,15-tetramethyl-hexadeca-2,6,10,14-tetraenyl)-amino]-4-methoxy-benzoic acid methyl ester] | 105% | 97.9% | 91 ± 9% | 41 ± 14% |  | 
21 | COC(=O)c1ccc(OC)c(NCC=C(C)CCC=C(C)COC2CCCCO2)c1 (stereo not shown) [Compound 36, 3-[3,7-Dimethyl-8-(tetrahydro-pyran-2-yloxy)-octa-2,6-dienylamino]-4-methoxy-benzoic acid methyl ester] | 79.7% | 80.1% | 45 ± 12% | 7 ± 7% |  | 
22 | COc1ccc(C(=O)NCCCO)cc1N(C/C=C(\C)CCC=C(C)C)C/C=C(\C)CCC=C(C)C [Compound 42] | 106% | 110% |  |  |  | 
23 | CCCOc1ccc(C(=O)OC)cc1N(C/C=C(\C)CC/C=C(\C)CCC=C(C)C)CCC [Compound 44] | 79.6% | 8.26% |  |  |  | 
24 | COc1ccc(C(=O)/N=C(\N)NCCCO)cc1N(C/C=C(\C)CCC=C(C)C)C/C=C(\C)CCC=C(C)C [Compound 45] | 125% | 111% |  |  |  | 
25 | COc1ccc(C(=O)/N=C(\N)NCCO)cc1N(C/C=C(\C)CCC=C(C)C)C/C=C(\C)CCC=C(C)C [Compound 47] | 34.7% | 19.1% |  |  |  | 
